US20250034125A1, “COMPOUNDS AND USES THEREOF” (JANSSEN PHARMACEUTICA NV, priority 2019, published 2025)
pIC50: −log10 of the molar value. Where two headings read alike, the source gives them in different places.

Assays:
SCD5 = target: T1, SCD5 (Homo sapiens, UniProt Q86SK9); experiment: Growth inhibition of yeast (ole1Δ) expressing human SCD5 as the sole desaturase; type: cell-based; conditions: read-out: SCD5 IC50
T1 construct: host or cells: Saccharomyces cerevisiae ole1Δ strain (W303 pdr1Δ pdr3Δ background), plasmid pRS316, TDH3 promoter
T1 sequence (Q86SK9 1-330): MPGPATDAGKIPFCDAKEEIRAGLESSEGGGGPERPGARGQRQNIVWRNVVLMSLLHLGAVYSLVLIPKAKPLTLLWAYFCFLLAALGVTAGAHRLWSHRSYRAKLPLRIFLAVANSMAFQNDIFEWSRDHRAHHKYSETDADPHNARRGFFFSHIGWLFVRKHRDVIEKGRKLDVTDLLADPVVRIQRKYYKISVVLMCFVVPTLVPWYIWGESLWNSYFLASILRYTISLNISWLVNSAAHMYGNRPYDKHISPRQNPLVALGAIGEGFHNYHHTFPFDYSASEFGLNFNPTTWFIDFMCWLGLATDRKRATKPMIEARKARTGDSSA

SCD1 = target: T2, SCD1 (Homo sapiens, UniProt O00767); experiment: Growth inhibition of yeast (ole1Δ) expressing human SCD1 as the sole desaturase; type: cell-based; conditions: read-out: SCD1 IC50
T2 construct: host or cells: Saccharomyces cerevisiae ole1Δ strain (W303 pdr1Δ pdr3Δ background), plasmid pRS316, TDH3 promoter
T2 sequence (O00767 1-359): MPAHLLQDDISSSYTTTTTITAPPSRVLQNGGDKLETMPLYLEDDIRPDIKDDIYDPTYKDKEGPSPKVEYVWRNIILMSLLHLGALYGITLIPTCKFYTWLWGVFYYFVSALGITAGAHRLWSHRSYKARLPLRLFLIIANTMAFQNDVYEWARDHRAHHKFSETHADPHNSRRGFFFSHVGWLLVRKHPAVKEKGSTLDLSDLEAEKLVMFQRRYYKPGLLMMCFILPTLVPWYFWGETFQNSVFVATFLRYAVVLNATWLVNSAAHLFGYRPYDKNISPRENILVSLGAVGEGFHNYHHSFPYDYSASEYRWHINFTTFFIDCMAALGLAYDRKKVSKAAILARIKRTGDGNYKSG

[1] = yeast strain with SCD5 plasmid, OD600 growth read at 40 h
[2] = yeast strain with SCD1 plasmid, OD600 growth read at 40 h

Row | Compound | pIC50 (SCD5; [1]) | pIC50 (SCD1; [2]) | pIC50 (SCD5) | pIC50 (SCD1)
1 | Cn1nc(-c2nc(N3CCC(Oc4cccc(F)c4Cl)CC3)no2)ccc1=O [Compound 112, 6-(3-(4-(2-chloro-3-fluorophenoxy)piperidin-1-yl)-1,2,4-oxadiazol-5-yl)-2-methylpyridazin-3(2H)-one] | 6.22 | 6.30 |  | 
2 | Cn1nc(-c2noc(N3CCC(Cc4cc(F)cc(F)c4)CC3)n2)ccc1=O [Compound 122, 6-(5-(4-(3,5-difluorobenzyl)piperidin-1-yl)-1,2,4-oxadiazol-3-yl)-2-methylpyridazin-3(2H)-one] | 5.76 | 4.87 |  | 
3 | Cn1nc(NC(=O)N2CCC(Nc3ccccc3C(F)(F)F)CC2)ccc1=O [Compound 92, N-(1-methyl-6-oxo-1,6-dihydropyridazin-3-yl)-4-(2-(trifluoromethyl)phenylamino) piperidine-1-carboxamide] | 6.41 | 5.62 |  | 
4 | Cn1cc(-c2nc(N3CCC(Oc4cc(F)cc(F)c4)CC3)no2)ccc1=O [Compound 15, 5-(3-(4-(3,5-difluorophenoxy)piperidin-1-yl)-1,2,4-oxadiazol-5-yl)-1-methylpyridin-2(1H)-one] | 6.07 | 4.91 |  | 
5 | Cn1nc(-c2nnc(N3CCC(Cc4cccc(F)c4)CC3)o2)ccc1=O [Compound 119, 6-(5-(4-(3-fluorobenzyl)piperidin-1-yl)-1,3,4-oxadiazol-2-yl)-2-methylpyridazin-3(2H)-one] | 6.80 | < 4.35 |  | 
6 | Cn1nc(NC(=O)N2CC(Oc3ccc(F)c(F)c3)C2)ccc1=O [Compound 23, 3-(3,4-difluorophenoxy)-N-(1-methyl-6-oxo-1,6-dihydropyridazin-3-yl)azetidine-1-carboxamide] | 5.74 | 5.89 |  | 
7 | Cn1nc(-c2nc(N3CCC(Cc4cc(F)cc(F)c4)CC3)no2)ccc1=O [Compound 115, 6-(3-(4-(3,5-difluorobenzyl)piperidin-1-yl)-1,2,4-oxadiazol-5-yl)-2-methylpyridazin-3(2H)-one] | 8.00 | 6.35 |  | 
8 | Cn1cc(-c2nc(N3CCC(Cc4cc(F)cc(F)c4)CC3)no2)ccc1=O [Compound 17, 5-(3-(4-(3,5-difluorobenzyl)piperidin-1-yl)-1,2,4-oxadiazol-5-yl)-1-methylpyridin-2(1H)-one] | 8.00 | 6.14 |  | 
9 | Cn1cc(-c2noc(N3CCC(Cc4ccc(F)c(F)c4)CC3)n2)ccc1=O [Compound 20, 5-(5-(4-(3,4-difluorobenzyl)piperidin-1-yl)-1,2,4-oxadiazol-3-yl)-1-methylpyridin-2(1H)-one] | 5.85 | 5.57 |  | 
10 | Cn1nc(NC(=O)N2CC[C@H](Oc3cc(F)cc(F)c3)C2)ccc1=O [Compound 30, (3S)-3-(3,5-difluorophenoxy)-N-(1-methyl-6-oxo-1,6-dihydropyridazin-3-yl)pyrrolidine-1-carboxamide] | 5.54 | 6.48 |  | 
11 | Cn1nc(NC(=O)N2CCN(Cc3cccc(Cl)c3)CC2)ccc1=O [Compound 130, 4-(3-chlorobenzyl)-N-(1-methyl-6-oxo-1,6-dihydropyridazin-3-yl)piperazine-1-carboxamide] | 4.80 | < 4.35 |  | 
12 | Cn1cc(CC(=O)N2CCC(Cc3cccc(Cl)c3)CC2)ccc1=O [Compound 4, 5-(2-(4-(3-chlorobenzyl)piperidin-1-yl)-2-oxoethyl)-1-methylpyridin-2(1H)-one] | 4.61 | < 4.35 |  | 

Second part, the compound after the results:

Row | pIC50 (SCD5; [1]) | pIC50 (SCD1; [2]) | pIC50 (SCD5) | pIC50 (SCD1) | Compound
13 |  |  | 5.93 | 5.66 | Cn1nc(NC(=O)N2CCC(Cc3ccc(F)cc3)CC2)ccc1=O [Compound 44, 4-(4-fluorobenzyl)-N-(1-methyl-6-oxo-1,6-dihydropyridazin-3-yl)piperidine-1-carboxamide]
14 | 7.52 | 7.15 |  |  | Cn1nc(NC(=O)N2CCC(Oc3ccc(C(F)(F)F)c(F)c3)CC2)ccc1=O [Compound 88, 4-(3-fluoro-4-(trifluoromethyl)phenoxy)-N-(1-methyl-6-oxo-1,6-dihydropyridazin-3-yl)piperidine-1-carboxamide]
15 | 6.82 | 6.38 |  |  | Cn1nc(NC(=O)N2CCC(Oc3ccccc3Cl)CC2)ccc1=O [Compound 69]
16 | 5.92 | 5.70 |  |  | Cn1nc(NC(=O)N2CCC(Oc3ccc(F)c(F)c3)CC2)ccc1=O [Compound 80]
17 |  |  | < 4.35 | < 4.35 | Cn1nc(NC(=O)N2CCC(COc3cccc(F)c3)CC2)ccc1=O [Compound 101, 4-((3-fluorophenoxy)methyl)-N-(1-methyl-6-oxo-1,6-dihydropyridazin-3-yl)piperidine-1-carboxamide]
18 | 5.16 | 4.49 |  |  | Cn1nc(NC(=O)N2CCC(COc3ccccc3F)CC2)ccc1=O [Compound 99, 4-((2-fluorophenoxy)methyl)-N-(1-methyl-6-oxo-1,6-dihydropyridazin-3-yl)piperidine-1-carboxamide]
19 | 5.86 | 5.87 |  |  | Cn1nc(CC(=O)N2CCC(Oc3cccc(Cl)c3)CC2)ccc1=O [Compound 39]
20 | 4.58 | < 4.35 |  |  | Cn1nc(NC(=O)N2CCC(OCc3ccccc3F)CC2)ccc1=O [Compound 97, 4-(2-fluorobenzyloxy)-N-(1-methyl-6-oxo-1,6-dihydropyridazin-3-yl)piperidine-1-carboxamide]
21 | 8.00 | 6.89 |  |  | Cn1nc(NC(=O)N2CCC(Cc3cc(F)c(F)c(Cl)c3)CC2)ccc1=O [Compound 63, 4-(3-chloro-4,5-difluorobenzyl)-N-(1-methyl-6-oxo-1,6-dihydropyridazin-3-yl)piperidine-1-carboxamide]
22 | 5.59 | 5.04 |  |  | Cn1nc(NC(=O)N2CCC(Cc3cc(Cl)cc(C#N)c3)CC2)ccc1=O [Compound 57, 4-(3-chloro-5-cyanobenzyl)-N-(1-methyl-6-oxo-1,6-dihydropyridazin-3-yl)piperidine-1-carboxamide]
23 | < 4.35 | < 4.35 |  |  | Cn1nc(NC(=O)N2CCC(Oc3cccc(C#N)c3Cl)CC2)ccc1=O [Compound 87, 4-(2-chloro-3-cyanophenoxy)-N-(1-methyl-6-oxo-1,6-dihydropyridazin-3-yl)piperidine-1-carboxamide]
24 | 6.77 | 6.37 |  |  | Cn1nc(NC(=O)N2CCC(Oc3cccc(F)c3C(F)(F)F)CC2)ccc1=O [Compound 84]
25 | 5.32 | 5.01 |  |  | Cn1nc(NC(=O)N2CCC(Oc3ccc(C(F)(F)F)cc3)CC2)ccc1=O [Compound 76, N-(1-methyl-6-oxo-1,6-dihydropyridazin-3-yl)-4-(4-(trifluoromethyl)phenoxy) piperidine-1-carboxamide]
26 | 5.94 | 5.30 |  |  | CCn1nc(NC(=O)N2CCC(Cc3cc(F)cc(F)c3)CC2)ccc1=O [Compound 125, 4-(3,5-difluorobenzyl)-N-(1-ethyl-6-oxo-1,6-dihydropyridazin-3-yl)piperidine-1-carboxamide]
27 | 5.31 | < 4.35 |  |  | Cn1nc(OC(=O)N2CCC(Cc3cc(F)cc(F)c3)CC2)ccc1=O [Compound 109]
28 | 5.25 | 5.38 |  |  | Cn1nc(NC(=O)N2CCC(Cc3cc(F)cc(F)c3)C2)ccc1=O (centres unmarked) [Compound 26, 3-(3,5-difluorobenzyl)-N-(1-methyl-6-oxo-1,6-dihydropyridazin-3-yl)pyrrolidine-1-carboxamide]
